The text below walks through data of US20230389542A1, “USE OF [(1,5-DIPHENYL-1H-PYRAZOL-3-YL)OXY] ACETIC ACID DERIVATIVES AND THEIR SALTS AND COMPOSITIONS CONTAINING THEM, FOR REDUCING PHYTOTOXIC EFFECTS OF AGROCHEMICALS, IN PARTICULAR OF HERBICIDES, IN USEFUL PLANTS AND CROP PLANTS” (BAYER AKTIENGESELLSCHAFT, priority 2020, published 2023).

Assay type in all cases: in vivo
In data set [1] the test system is summer wheat (TRZAS; cv. Triso). The data set can be described thus: Absolute action: reduction of damage by mesosulfuron-methyl on summer wheat, greenhouse post-emergence. Further details: key to Absolute reduction in damage (difference): percentage points of visual damage (0-100% scale vs untreated). As for the experimental part: (§1) 2.1 Absolute Action of Selected Compounds of the Invention Using the Example of Reduction of Damage by Mesosulfuron-Methyl on Summer Wheat (TRZAS) The seeds of the crop plants to be treated are laid out in sandy loam in wood fiber or plastic pots (diameter ˜4 cm), covered with soil and grown in a greenhouse under good conditions for germination and growth. The trial plants were treated at the early leaf stage (BBCH10-BBCH12). In the course of this, the inventive compounds of the general formula (D formulated in the form of wettable powders (WP) were sprayed onto the above-ground parts of the plants as an aqueous suspension with a water application rate corresponding to 800 l/ha with addition of wetting agent (e.g. 0.2% agrotin) in the specified dose. This was followed by the application of the herbicide. For this purpose, mesosulfuron-methyl, formulated in the form of water-dispersible granules (WG), was sprayed onto the above-ground parts of the plants in the form of an aqueous dispersion with a water application rate corresponding to 800 l/ha with addition of wetting agent (e.g. 0.2% agrotin) in a dose of 20 g/ha. The dose of the herbicide was chosen here such that it causes visually apparent damage (min. 30%, max. 75%) compared to untreated crop plants at the evaluation time on a control group of crop plants without safener treatment that were included in the same trial. After application, the plants were cultivated under good growth conditions in a greenhouse. The damage was visually assessed 14-21 days after application. The damage effect was assessed visually on a scale of 0-100% by comparison with untreated control plants, and averaged over 2-3 repeats per treatment. Examples: • 0%=no noticeable effect compared to the untreated plant • 20%=the treated plant population has 20% damage compared to the untreated control population (e.g. growth height, leaf damage, etc.) • 100%=treated plants completely damaged/killed.

Data set [2] deals with summer barley (HORVS; cv. Montoya). The data set can be described thus: Absolute action: reduction of damage by mesosulfuron-methyl on summer barley, greenhouse post-emergence. Further details: key to Absolute reduction in damage (difference): difference in % damage (0-100% visual scale vs untreated control). Here is the method: as §1, with “2.2” for “2.1”, “Barley (HORVS)” for “Wheat (TRZAS)”, “(I)” for “(D”

In data set [3] the test system is summer wheat (TRZAS; cv. Triso). Briefly: Relative action (efficacy code): reduction of damage by mesosulfuron-methyl on summer wheat. The note with it: visual, 9-13 days after application. Further details: key: 0: no reduction in damage (appearance corresponding to the herbicide control); 1: slight reduction in damage; 2: distinct reduction in damage; 3: significant reduction in damage; 4: complete reduction in damage (appearance corresponding to the untreated control). As for the experimental part: 2.3 Relative Action of Selected Compounds of the Invention Using the Example of Reduction of Damage by Mesosulfuron-Methyl on Summer Wheat (TRZAS) The seeds of the crop plants to be treated are laid out in sandy loam in plastic pots (diameter μ4 cm), covered with soil and grown in a greenhouse under good conditions for germination and growth. The trial plants were treated at the early leaf stage (BBCH10-BBCH12). In the course of this, the inventive compounds of the general formula (I) formulated in the form of wettable powders (WP) were sprayed onto the above-ground parts of the plants as an aqueous suspension with a water application rate corresponding to 800 l/ha with addition of wetting agent (e.g. 0.2% Genapol-LRO or 0.2% Mero) in the specified dose. This was followed by the application of the herbicide. For this purpose, mesosulfuron-methyl, formulated in the form of water-dispersible granules (WG), was sprayed onto the above-ground parts of the plants in the form of an aqueous dispersion with a water application rate corresponding to 800 l/ha with addition of wetting agent (e.g. 0.2% Genapol-LRO or 1 l/ha Biopower) in a dose of 40-60 g/ha. The dose of the herbicide was chosen here such that it causes visually apparent damage (min. 30%, max. 75%) compared to untreated crop plants at the evaluation time on a control group of crop plants without safener treatment that were included in the same trial. After application, the plants were cultivated under good growth conditions in a greenhouse. 9-13 days after application, the efficacy of the test compounds was assessed visually. For this purpose, the appearance of the plants treated with the test compound and herbicide was compared to the corresponding herbicide controls (without safener; with clearly visible damage) and the untreated controls (without damage). The damage-reducing effect of the test compounds was expressed here in graded efficacy codes according to the following scheme: • 0: no reduction in damage (appearance corresponding to the herbicide control) • 1: slight reduction in damage • 2: distinct reduction in damage • 3: significant reduction in damage • 4: complete reduction in damage (appearance corresponding to the untreated control) The trials show clear efficacy of the inventive compounds selected by way of example with regard to the reduction in damage to the summer wheat crop plant (TRZAS; cv. Triso) caused by the herbicide mesosulfuron-methyl: […]

Setting [4] is: safener 125 g/ha + mesosulfuron-methyl 20 g/ha.
Setting [5] is: safener 125 g/ha + mesosulfuron-methyl 20 g/ha, visual, 14-21 days after application.
[6] abbreviates: safener 500 g/ha + mesosulfuron-methyl 20 g/ha.
The mark [7] stands for this setting: safener 500 g/ha + mesosulfuron-methyl 20 g/ha, visual, 14-21 days after application.
Where [8] appears, read: safener 100 g/ha + mesosulfuron-methyl 40-60 g/ha.
[9] abbreviates: safener 500 g/ha + mesosulfuron-methyl 40-60 g/ha.
[10] abbreviates: mesosulfuron-methyl 20 g/ha alone (no safener), visual, 14-21 days after application, scale 0-100%.

Each structure is given as a SMILES string. Where “and” joins values, the source holds several entries; their conditions need not be identical. Identical values can stand only once.

Turning to `O=C(O)COc1cc(-c2ccccc2)n(-c2ccc(Cl)cc2)n1` [I.3-7], the “Absolute reduction in damage (difference)” value in data set [1] (setting [4]) worked out at 26. Besides, the “Herbicide damage with compound of the formula (I)” value (shortened to “Herbicide damage with compound”) in data set [1] (setting [5]) is 37%.
`COc1ccccc1-n1nc(OCC(=O)O)cc1-c1ccccc1` [I.3-20]: the “Absolute reduction in damage (difference)” value in data set [1] (setting [6]) came out at 36. In data set [1] (setting [7]), the “Herbicide damage with compound” value is reported as 17%.
In the case of `CCOC(=O)COc1cc(-c2ccc(F)cc2)n(-c2ccccc2OC)n1` [I.11-20], the “Absolute reduction in damage (difference)” value in data set [1] (setting [4]) and in data set [1] (setting [6]) was 46 each time. For the same compound, the “Herbicide damage with compound” value in data set [1] (setting [5]) and in data set [1] (setting [7]) was 7% in each case.
As for `CCOC(=O)COc1cc(-c2ccc(F)cc2)n(-c2ccc(F)cc2F)n1` [I.11-38], the “Absolute reduction in damage (difference)” value amounted to 43 in data set [1] (setting [4]), 43 in data set [1] (setting [6]), 23 in data set [2] (setting [4]) and 33 in data set [2] (setting [6]). The “Herbicide damage with compound” value in data set [1] (setting [5]) amounted to 10%; in data set [1] (setting [7]) it was 10%; in data set [2] (setting [5]), 37%; in data set [2] (setting [7]), 27%.
On to `O=C(O)COc1cc(-c2ccc(F)cc2)n(-c2ccc(F)cc2)n1` [I.12-4], for which the “Absolute reduction in damage (difference)” value in data set [1] (setting [6]) was found to be 46; in data set [2] (setting [6]), 27. The “Herbicide damage with compound” value in data set [1] (setting [7]) is recorded as 7%; in data set [2] (setting [7]), 33%.
Regarding `CCOC(=O)COc1cc(-c2ccc(Cl)cc2)n(-c2ccc(Cl)cc2F)n1` [I.20-49], the “Efficacy of the safener (efficacy code)” value in data set [3] (setting [8]) and in data set [3] (setting [9]) was 3 in each case.
Turning to `COc1ccccc1-n1nc(OCC(=O)O)cc1-c1ccc(Cl)cc1` [I.21-20], the “Absolute reduction in damage (difference)” value in data set [1] (setting [4]) is 30; in data set [1] (setting [6]), 36. Further, the “Herbicide damage with compound” value in data set [1] (setting [5]) worked out at 23%; in data set [1] (setting [7]), 17%.
Take `O=C(O)COc1cc(-c2ccc(Cl)cc2)n(-c2ccc(F)cc2F)n1` [I.21-38]: the “Absolute reduction in damage (difference)” value came out at 46 in data set [1] (setting [4]), 50 in data set [1] (setting [6]), 33 in data set [2] (setting [4]) and 33 in data set [2] (setting [6]). Moreover, the “Herbicide damage with compound” value in data set [1] (setting [5]) was 7%; in data set [1] (setting [7]), 3%; in data set [2] (setting [5]) it was 27%; in data set [2] (setting [7]) it was 27%.
For `CCOC(=O)COc1cc(-c2ccc(F)cc2F)n(-c2ccccc2)n1` [I.41-1], the “Absolute reduction in damage (difference)” value in data set [1] (setting [4]) amounted to 53. In data set [1] (setting [5]), the “Herbicide damage with compound” value was determined as 0%.
As for `CCOC(=O)COc1cc(-c2ccc(F)cc2F)n(-c2ccc(F)cc2)n1` [I.41-4], the “Absolute reduction in damage (difference)” value amounted to 40 in data set [1] (setting [4]) and 23 in data set [2] (setting [4]). In addition, the “Herbicide damage with compound” value in data set [1] (setting [5]) is recorded as 13%; in data set [2] (setting [5]), 37%.
Take `CCOC(=O)COc1cc(-c2ccc(F)cc2F)n(-c2ccccc2OC)n1` [I.41-20]: the “Absolute reduction in damage (difference)” value in data set [1] (setting [4]) turned out to be 36; in data set [1] (setting [6]) it was 43. For the same compound, the “Herbicide damage with compound” value is given as 17% in data set [1] (setting [5]) and 10% in data set [1] (setting [7]).
`CCOC(=O)COc1cc(-c2ccc(F)cc2F)n(-c2ccc(F)cc2F)n1` [I.41-38]: the results for the “Absolute reduction in damage (difference)” value in data set [1] (setting [6]) and in data set [2] (setting [6]) were 40 and 33, respectively. Also, the “Herbicide damage with compound” value in data set [1] (setting [7]) is listed as 13%; in data set [2] (setting [7]), 27%.
For `COc1ccccc1-n1nc(OCC(=O)O)cc1-c1ccc(F)cc1F` [I.42-20], the “Absolute reduction in damage (difference)” value in data set [1] (setting [4]) is reported as 40. In addition, in data set [1] (setting [5]), the “Herbicide damage with compound” value is recorded as 13%.
With `O=C(O)COc1cc(-c2ccc(F)cc2F)n(-c2ccc(F)cc2F)n1` [I.42-38], the “Absolute reduction in damage (difference)” value in data set [1] (setting [4]) is 33; in data set [2] (setting [4]), 23. Also, the “Herbicide damage with compound” value in data set [1] (setting [5]) is recorded as 20%; in data set [2] (setting [5]), 37%.
Turning to `CCOC(=O)COc1cc(-c2ccc(Cl)cc2F)n(-c2ccc(Cl)cc2)n1` [I.47-7], the “Efficacy of the safener (efficacy code)” value in data set [3] (setting [8]) and in data set [3] (setting [9]) was 2 throughout.
In the case of `O=C(O)COc1cc(-c2ccc(Cl)cc2F)n(-c2ccc(F)cc2F)n1` [I.48-38], the “Efficacy of the safener (efficacy code)” value in data set [3] (setting [8]) and in data set [3] (setting [9]) was 2 each time.
On to `COC(=O)c1ccc(CNS(C)(=O)=O)cc1S(=O)(=O)NC(=O)Nc1nc(OC)cc(OC)n1` [mesosulfuron-methyl, reference compound], for which the “Herbicide damage without compound of the formula (I)” value was 53% and 63% in data set [1] (setting [10]); 60% in data set [2] (setting [10]).
